This is an account of results in US9527869B2, “Indolizine derivatives as phoshoinositide 3-kinases inhibitors” (CHIESI FARMACEUTICI S.P.A., priority 2014, dated 2016).

Holding throughout (type): biochemical
The target in one experiment is T1, PI3Kβ (Homo sapiens, UniProt P42338).
T1 construct: purchased Millipore Ltd (Billerica, Mass.)
The experiment can be described thus: In vitro determination of the PI3K enzyme inhibitory activity in the cell free assay (ADP-Glo Kinase Assay), PI3Kβ. To be noted: ATP 100 μM, read-out: PI3K beta inhibition. In short, it runs like this:
(§1)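 Human recombinant PI3K isoforms with PI/PS lipid substrates (50 μM in 2× buffer, Tris pH 7.5, DTT) were run 60 min at room temperature. Final ATP was 50 μM for α, 100 μM for β, 30 μM for γ and 80 μM for δ. ADP formation was read by ADP-Glo luminescence, and IC50 came from a four-parameter logistic fit.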

A further experiment concerns the target T2, PI3Kα (Homo sapiens, UniProt P42336).
T2 construct: purchased Millipore Ltd (Billerica, Mass.)
As to the kind of experiment: In vitro determination of the PI3K enzyme inhibitory activity in the cell free assay (ADP-Glo Kinase Assay), PI3Kα. Conditions: ATP 50 μM, read-out: PI3K alpha inhibition. A digest of the protocol: as §1
In general terms: ADP-Glo turns the ADP formed in a reaction into a luminescent signal.

The target in the next experiment is T3, PI3Kγ (Homo sapiens, UniProt P48736).
T3 construct: purchased Millipore Ltd (Billerica, Mass.)
The experiment can be described thus: In vitro determination of the PI3K enzyme inhibitory activity in the cell free assay (ADP-Glo Kinase Assay), PI3Kγ. To be noted: ATP 30 μM, read-out: PI3K gamma inhibition. A digest of the protocol: as §1

A further experiment has as its target T4, PI3Kδ (Homo sapiens, UniProt O00329).
T4 construct: purchased Millipore Ltd (Billerica, Mass.)
As to the kind of experiment: In vitro determination of the PI3K enzyme inhibitory activity in the cell free assay (ADP-Glo Kinase Assay), PI3Kδ. Conditions: ATP 80 μM, read-out: PI3K delta inhibition. In short, it runs like this:
as §1

T2 sequence (P42336 whole entry): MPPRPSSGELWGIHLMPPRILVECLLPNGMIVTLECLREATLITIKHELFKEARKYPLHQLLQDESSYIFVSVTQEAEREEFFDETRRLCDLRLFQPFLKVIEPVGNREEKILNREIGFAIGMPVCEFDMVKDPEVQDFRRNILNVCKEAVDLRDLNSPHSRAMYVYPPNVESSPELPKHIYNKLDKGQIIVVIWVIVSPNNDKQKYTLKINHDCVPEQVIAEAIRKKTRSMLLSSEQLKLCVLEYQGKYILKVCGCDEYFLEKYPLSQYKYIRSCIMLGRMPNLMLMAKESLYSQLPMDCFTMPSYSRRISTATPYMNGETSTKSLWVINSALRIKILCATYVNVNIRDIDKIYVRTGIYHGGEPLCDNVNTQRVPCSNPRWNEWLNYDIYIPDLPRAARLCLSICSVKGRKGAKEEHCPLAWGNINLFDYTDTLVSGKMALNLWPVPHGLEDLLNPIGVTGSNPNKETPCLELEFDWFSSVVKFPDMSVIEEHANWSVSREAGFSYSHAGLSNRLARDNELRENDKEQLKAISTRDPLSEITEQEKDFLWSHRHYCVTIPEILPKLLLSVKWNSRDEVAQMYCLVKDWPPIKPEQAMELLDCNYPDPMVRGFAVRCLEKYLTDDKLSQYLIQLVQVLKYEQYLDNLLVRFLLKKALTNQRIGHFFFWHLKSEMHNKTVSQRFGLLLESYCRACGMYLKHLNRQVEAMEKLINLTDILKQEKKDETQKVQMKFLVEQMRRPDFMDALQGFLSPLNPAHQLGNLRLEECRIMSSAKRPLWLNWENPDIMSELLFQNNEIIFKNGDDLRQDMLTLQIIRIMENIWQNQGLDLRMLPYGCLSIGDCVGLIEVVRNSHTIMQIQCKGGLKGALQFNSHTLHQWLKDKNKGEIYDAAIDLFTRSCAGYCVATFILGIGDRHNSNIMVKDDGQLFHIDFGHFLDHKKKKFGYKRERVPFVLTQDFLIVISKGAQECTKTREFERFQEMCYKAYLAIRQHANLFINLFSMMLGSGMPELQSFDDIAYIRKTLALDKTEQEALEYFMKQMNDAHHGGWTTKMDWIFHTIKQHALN
T2 sequence (P27986 whole entry partner): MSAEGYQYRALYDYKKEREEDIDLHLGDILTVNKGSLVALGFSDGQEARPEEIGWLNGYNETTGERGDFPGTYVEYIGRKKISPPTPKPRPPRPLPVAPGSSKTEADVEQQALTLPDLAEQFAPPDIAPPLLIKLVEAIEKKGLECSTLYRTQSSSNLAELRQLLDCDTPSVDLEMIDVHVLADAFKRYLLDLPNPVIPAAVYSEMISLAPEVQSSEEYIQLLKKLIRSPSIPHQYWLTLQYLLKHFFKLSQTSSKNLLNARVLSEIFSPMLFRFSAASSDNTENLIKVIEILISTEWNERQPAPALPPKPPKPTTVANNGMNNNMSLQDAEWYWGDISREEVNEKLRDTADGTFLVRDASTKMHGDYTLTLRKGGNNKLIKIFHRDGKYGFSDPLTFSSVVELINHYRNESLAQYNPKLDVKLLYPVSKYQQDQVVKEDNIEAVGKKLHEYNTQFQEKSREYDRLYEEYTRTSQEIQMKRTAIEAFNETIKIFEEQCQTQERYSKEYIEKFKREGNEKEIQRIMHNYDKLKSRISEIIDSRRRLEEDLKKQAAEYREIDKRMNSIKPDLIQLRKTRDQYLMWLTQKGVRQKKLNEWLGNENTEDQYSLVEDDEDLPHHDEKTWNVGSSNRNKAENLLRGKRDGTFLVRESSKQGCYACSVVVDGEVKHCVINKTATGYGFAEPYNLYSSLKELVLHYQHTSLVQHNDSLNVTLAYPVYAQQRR
T4 sequence (O00329 whole entry): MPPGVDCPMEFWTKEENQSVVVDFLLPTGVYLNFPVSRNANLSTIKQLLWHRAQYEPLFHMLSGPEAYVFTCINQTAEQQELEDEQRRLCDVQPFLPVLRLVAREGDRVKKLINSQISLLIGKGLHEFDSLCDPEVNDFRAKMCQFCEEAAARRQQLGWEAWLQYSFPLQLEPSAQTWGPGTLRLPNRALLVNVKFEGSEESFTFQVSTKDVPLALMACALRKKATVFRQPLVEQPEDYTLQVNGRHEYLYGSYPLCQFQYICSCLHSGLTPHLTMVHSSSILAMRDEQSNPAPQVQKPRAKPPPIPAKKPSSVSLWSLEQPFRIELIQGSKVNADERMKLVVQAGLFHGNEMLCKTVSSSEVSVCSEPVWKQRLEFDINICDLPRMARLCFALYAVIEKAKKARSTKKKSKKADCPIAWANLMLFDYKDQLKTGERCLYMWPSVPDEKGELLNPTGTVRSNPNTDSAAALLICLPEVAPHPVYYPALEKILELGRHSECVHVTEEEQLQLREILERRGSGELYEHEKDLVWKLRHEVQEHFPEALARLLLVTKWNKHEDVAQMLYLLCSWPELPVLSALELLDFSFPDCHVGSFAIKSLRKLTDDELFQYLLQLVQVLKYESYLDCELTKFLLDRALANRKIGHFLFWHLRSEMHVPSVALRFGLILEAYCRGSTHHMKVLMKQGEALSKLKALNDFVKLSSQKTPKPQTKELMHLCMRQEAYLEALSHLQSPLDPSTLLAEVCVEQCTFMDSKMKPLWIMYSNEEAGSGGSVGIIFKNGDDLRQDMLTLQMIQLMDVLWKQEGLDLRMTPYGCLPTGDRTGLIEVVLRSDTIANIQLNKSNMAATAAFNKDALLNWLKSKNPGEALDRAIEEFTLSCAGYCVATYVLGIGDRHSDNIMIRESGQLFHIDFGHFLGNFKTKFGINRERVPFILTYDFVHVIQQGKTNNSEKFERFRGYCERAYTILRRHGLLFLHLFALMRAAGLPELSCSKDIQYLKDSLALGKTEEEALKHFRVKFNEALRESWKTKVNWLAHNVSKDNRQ
T4 sequence (P27986 whole entry partner): as the sequence (P27986 whole entry partner) above
T1 sequence (P42338 whole entry): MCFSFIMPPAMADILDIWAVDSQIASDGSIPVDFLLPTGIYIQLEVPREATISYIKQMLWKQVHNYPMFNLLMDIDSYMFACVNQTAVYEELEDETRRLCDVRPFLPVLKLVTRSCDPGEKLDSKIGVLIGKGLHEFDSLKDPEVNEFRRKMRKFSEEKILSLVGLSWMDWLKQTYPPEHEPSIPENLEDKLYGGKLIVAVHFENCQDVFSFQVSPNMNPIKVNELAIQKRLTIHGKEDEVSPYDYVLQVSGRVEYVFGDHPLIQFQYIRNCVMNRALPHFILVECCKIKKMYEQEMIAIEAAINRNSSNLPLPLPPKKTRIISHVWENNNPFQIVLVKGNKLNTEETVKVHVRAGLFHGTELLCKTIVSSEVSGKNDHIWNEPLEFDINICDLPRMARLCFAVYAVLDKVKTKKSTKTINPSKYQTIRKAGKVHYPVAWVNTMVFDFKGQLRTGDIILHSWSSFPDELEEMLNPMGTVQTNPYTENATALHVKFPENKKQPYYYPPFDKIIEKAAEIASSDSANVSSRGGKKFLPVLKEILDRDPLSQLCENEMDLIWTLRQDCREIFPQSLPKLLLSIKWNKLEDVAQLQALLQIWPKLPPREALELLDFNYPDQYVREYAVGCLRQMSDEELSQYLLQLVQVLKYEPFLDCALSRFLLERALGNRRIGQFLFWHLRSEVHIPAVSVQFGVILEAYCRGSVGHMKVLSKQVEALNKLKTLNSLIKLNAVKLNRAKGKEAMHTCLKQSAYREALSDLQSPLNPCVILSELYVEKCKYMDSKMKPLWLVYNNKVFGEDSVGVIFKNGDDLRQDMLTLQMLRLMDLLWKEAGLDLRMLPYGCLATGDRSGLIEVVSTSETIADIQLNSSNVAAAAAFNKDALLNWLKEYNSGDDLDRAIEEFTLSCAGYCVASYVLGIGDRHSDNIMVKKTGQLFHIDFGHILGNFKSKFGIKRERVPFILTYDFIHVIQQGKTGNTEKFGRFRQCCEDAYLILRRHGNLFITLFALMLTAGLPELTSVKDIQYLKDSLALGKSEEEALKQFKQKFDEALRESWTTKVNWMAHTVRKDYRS
T1 sequence (P27986 whole entry partner): as the sequence (P27986 whole entry partner) above
T3 sequence (P48736 whole entry): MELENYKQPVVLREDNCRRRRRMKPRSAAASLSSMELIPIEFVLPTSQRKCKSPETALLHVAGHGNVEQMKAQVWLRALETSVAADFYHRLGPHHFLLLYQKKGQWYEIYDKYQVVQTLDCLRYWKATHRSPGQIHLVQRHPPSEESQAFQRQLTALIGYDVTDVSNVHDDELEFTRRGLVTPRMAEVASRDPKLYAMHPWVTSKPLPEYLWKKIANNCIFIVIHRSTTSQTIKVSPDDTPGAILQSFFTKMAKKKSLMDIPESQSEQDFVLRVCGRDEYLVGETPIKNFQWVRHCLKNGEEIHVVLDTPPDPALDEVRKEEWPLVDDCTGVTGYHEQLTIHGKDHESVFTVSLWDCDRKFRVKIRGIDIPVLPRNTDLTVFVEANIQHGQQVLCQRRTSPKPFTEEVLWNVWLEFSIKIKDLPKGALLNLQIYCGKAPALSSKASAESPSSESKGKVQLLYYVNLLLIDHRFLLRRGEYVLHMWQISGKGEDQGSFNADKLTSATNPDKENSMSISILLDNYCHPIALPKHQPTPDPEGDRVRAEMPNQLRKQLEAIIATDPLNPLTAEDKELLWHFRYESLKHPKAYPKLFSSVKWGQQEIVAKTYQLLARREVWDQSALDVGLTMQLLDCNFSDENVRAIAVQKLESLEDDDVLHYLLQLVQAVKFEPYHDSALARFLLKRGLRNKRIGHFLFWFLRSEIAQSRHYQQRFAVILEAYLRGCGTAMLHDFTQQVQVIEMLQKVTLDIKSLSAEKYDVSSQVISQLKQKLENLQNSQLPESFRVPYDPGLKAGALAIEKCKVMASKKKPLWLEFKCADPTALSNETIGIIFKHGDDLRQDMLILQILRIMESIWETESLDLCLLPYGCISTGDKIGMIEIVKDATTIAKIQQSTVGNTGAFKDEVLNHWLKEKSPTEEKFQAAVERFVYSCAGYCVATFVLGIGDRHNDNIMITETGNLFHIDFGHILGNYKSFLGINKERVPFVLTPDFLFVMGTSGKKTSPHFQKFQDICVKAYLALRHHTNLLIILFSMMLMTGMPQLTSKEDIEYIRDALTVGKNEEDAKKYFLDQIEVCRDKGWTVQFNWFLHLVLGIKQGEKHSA

For `CC(c1cc2ccccn2c1-c1ccc(=O)n(CCN2CCOCC2)n1)n1nc(-c2cc(O)cc(F)c2)c2c(N)ncnc21` (centres unmarked) [Example 136, 6-(2-{1-[4-amino-3-(3-fluoro-5-hydroxyphenyl)-1H-pyrazolo[3,4-d]pyrimidin-1-yl]-ethyl}indolizin-3-yl)-2-[2-(morpholin-4-yl)ethyl]-2,3-dihydropyridazin-3-one], the IC50 at PI3Kβ was 10 to 1000 nM; at PI3Kα, 10 to 1000 nM; at PI3Kγ, over 1000 nM; on PI3Kδ it was 10 to 1000 nM.

Take `CC(c1cc2ccccn2c1-c1ccccn1)n1nc(-c2cc(O)cc(C#N)c2)c2c(N)ncnc21` (centres unmarked) [Example 77, 3-(4-amino-1-{1-[3-(pyridin-2-yl)indolizin-2-yl]ethyl}-1H-pyrazolo[3,4-d]pyrimidin-3-yl)-5-hydroxybenzonitrile]: the IC50 was 10 to 1000 nM at PI3Kβ, over 1000 nM on PI3Kα, 10 to 1000 nM on PI3Kγ and under 10 nM on PI3Kδ.

Turning to `Nc1ncnc2c1ncn2Cc1cc2ccccn2c1-c1ccccn1` [Example 3, 9-{[3-(pyridin-2-yl)indolizin-2-yl]methyl}-9H-purin-6-amine], the IC50 on PI3Kβ, on PI3Kα, on PI3Kγ and at PI3Kδ was over 1000 nM throughout.

Consider `c1ccc(-c2c(CNc3ncnc4[nH]cnc34)cc3ccccn23)cc1` [Example 13, N-[(3-phenylindolizin-2-yl)methyl]-9H-purin-6-amine], for which the IC50 on PI3Kβ, on PI3Kα, on PI3Kγ and on PI3Kδ was over 1000 nM throughout.

For the compound `N#Cc1c(N)ncnc1NCc1cc2ccccn2c1-c1ccccc1F` [Example 25, 4-amino-6-({[3-(2-fluorophenyl)indolizin-2-yl]methyl}amino)pyrimidine-5-carbonitrile], the IC50 at PI3Kβ was over 1000 nM; on PI3Kα, over 1000 nM; on PI3Kγ, over 1000 nM; on PI3Kδ, 10 to 1000 nM.

On to `CC(c1cc2ccccn2c1-c1cccc(C2CCCN2C)c1)n1nc(-c2cc(O)cc(F)c2)c2c(N)ncnc21` (mixture of isomers) [Example 118, 3-[4-amino-1-(1-{3-[3-(1-methylpyrrolidin-2-yl)phenyl]indolizin-2-yl}ethyl)-1H-pyrazolo[3,4-d]pyrimidin-3-yl]-5-fluorophenol], for which the IC50 is 10 to 1000 nM at PI3Kβ, over 1000 nM at PI3Kα, over 1000 nM at PI3Kγ and 10 to 1000 nM on PI3Kδ.

Consider `CC(Nc1ncnc(N)c1C#N)c1cc2ccccn2c1C#CCO` (centres unmarked) [Example 46, 4-amino-6-({1-[3-(3-hydroxyprop-1-yn-1-yl)indolizin-2-yl]ethyl}amino)pyrimidine-5-carbonitrile], for which the IC50 on PI3Kβ was 10 to 1000 nM; on PI3Kα, over 1000 nM; at PI3Kγ, 10 to 1000 nM; at PI3Kδ, 10 to 1000 nM.

For the compound `CC(c1cc2ccccn2c1-c1ccn(CCN2CCOCC2)c(=O)c1)n1nc(-c2cncc(O)c2)c2c(N)ncnc21` (centres unmarked) [Example 122, 4-(2-{1-[4-amino-3-(5-hydroxypyridin-3-yl)-1H-pyrazolo[3,4-d]pyrimidin-1-yl]ethyl}indolizin-3-yl)-1-[2-(morpholin-4-yl)ethyl]-1,2-dihydropyridin-2-one], the IC50 at PI3Kβ was 10 to 1000 nM; at PI3Kα it was over 1000 nM; on PI3Kγ it was over 1000 nM; on PI3Kδ, under 10 nM.

`Cc1ccccc1-c1c(CNc2ncnc3[nH]cnc23)cn2ccccc12` [Example 19, N-{[1-(2-methylphenyl)indolizin-2-yl]methyl}-9H-purin-6-amine]: the IC50 at PI3Kβ, on PI3Kα, at PI3Kγ and on PI3Kδ was over 1000 nM in each case.

Turning to `Nc1ncnc2c1ncn2Cc1cn2ccccc2c1-c1ccccc1` [Example 10, 9-[(1-phenylindolizin-2-yl)methyl]-9H-purin-6-amine], the IC50 at PI3Kβ, at PI3Kα, on PI3Kγ and at PI3Kδ was over 1000 nM in each case.

As for `Cc1cccn2c(-c3ccccn3)c(C(C)Nc3ncnc(N)c3C#N)cc12` (centres unmarked) [Example 41, 4-amino-6-({1-[8-methyl-3-(pyridin-2-yl)indolizin-2-yl]ethyl}amino)pyrimidine-5-carbonitrile], the IC50 on PI3Kβ was over 1000 nM; at PI3Kα, over 1000 nM; at PI3Kγ it was over 1000 nM; on PI3Kδ, 10 to 1000 nM.

Regarding `CC(Nc1ncnc(N)c1C#N)c1cc2ccccn2c1-c1ccncc1` (centres unmarked) [Example 36, 4-amino-6-({1-[3-(pyridin-4-yl)indolizin-2-yl]ethyl}amino)pyrimidine-5-carbonitrile], the IC50 is 10 to 1000 nM on PI3Kβ, over 1000 nM at PI3Kα, 10 to 1000 nM on PI3Kγ and 10 to 1000 nM on PI3Kδ.

As to `CC(c1cc2ccccn2c1-c1ccc(CN2CCOCC2)cc1)n1nc(-c2cc(O)cc(F)c2)c2c(N)ncnc21` (centres unmarked) [Example 91, 3-[4-amino-1-(1-{3-[4-(morpholin-4-ylmethyl)phenyl]indolizin-2-yl}ethyl)-1H-pyrazolo[3,4-d]pyrimidin-3-yl]-5-fluorophenol], the IC50 at PI3Kβ is over 1000 nM; on PI3Kα, over 1000 nM; at PI3Kγ, over 1000 nM; at PI3Kδ it was 10 to 1000 nM.

As for `Cc1ccccc1-c1c(Cn2cnc(N)c3ncnc2-3)cc2ccccn12` [Example 8, 3-{[3-(2-methylphenyl)indolizin-2-yl]methyl}-3H-purin-6-amine], the IC50 on PI3Kβ, at PI3Kα, at PI3Kγ and at PI3Kδ was over 1000 nM throughout.

As for `CC(c1cc2ccccn2c1CN1C[C@H]2CN(C)C[C@H]2C1)n1nc(-c2cc(O)cc(F)c2)c2c(N)ncnc21` (stereo partly drawn) [Example 145, 3-{1-[1-(3-{[(3aR,6aS)-5-methyl-octahydropyrrolo[3,4-c]pyrrol-2-yl]methyl}indolizin-2-yl)ethyl]-4-amino-1H-pyrazolo[3,4-d]pyrimidin-3-yl}-5-fluorophenol], the IC50 on PI3Kβ, on PI3Kα, on PI3Kγ and at PI3Kδ was 10 to 1000 nM throughout.

With `Cc1ccccc1-c1c(Cn2cnc3c(N)ncnc32)cc2ccccn12` [Example 7, 9-{[3-(2-methylphenyl)indolizin-2-yl]methyl}-9H-purin-6-amine], the IC50 at PI3Kβ, on PI3Kα, on PI3Kγ and on PI3Kδ was over 1000 nM in each case.

For the compound `Nc1ncnc2c1ncn2Cc1cn2ccccc2c1-c1cccc(F)c1` [Example 11, 9-{[1-(3-fluorophenyl)indolizin-2-yl]methyl}-9H-purin-6-amine], the IC50 on PI3Kβ, on PI3Kα, on PI3Kγ and on PI3Kδ was over 1000 nM in each case.

In the case of `CC(c1c(C#N)c2ccccn2c1-c1cccc(CN(C)C)c1)n1nc(-c2cc(O)cc(F)c2)c2c(N)ncnc21` (centres unmarked) [Example 127, 2-{1-[4-amino-3-(3-fluoro-5-hydroxyphenyl)-1H-pyrazolo[3,4-d]pyrimidin-1-yl]-ethyl}-3-{3-[(dimethylamino)-methyl]phenyl}indolizine-1-carbonitrile], the IC50 at PI3Kβ is 10 to 1000 nM; at PI3Kα, over 1000 nM; on PI3Kγ, over 1000 nM; at PI3Kδ, under 10 nM.

In the case of `Nc1ncnc2c1c(-c1cc(O)cc(F)c1)nn2Cc1cc2ccccn2c1-c1ccncc1` [Example 99, 3-(4-amino-1-{[3-(pyridin-4-yl)indolizin-2-yl]methyl}-1H-pyrazolo[3,4-d]pyrimidin-3-yl)-5-fluorophenol], the IC50 on PI3Kβ is 10 to 1000 nM; on PI3Kα it was 10 to 1000 nM; at PI3Kγ, 10 to 1000 nM; on PI3Kδ it was under 10 nM.

`CC(c1cc2ccccn2c1-c1cccc(CN2CCN(C)CC2)n1)n1nc(-c2cc(O)cc(F)c2)c2c(N)ncnc21` (centres unmarked) [Example 115, 3-{4-amino-1-[1-(3-{6-[(4-methylpiperazin-1-yl)methyl]pyridin-2-yl}indolizin-2-yl)ethyl]-1H-pyrazolo-[3,4-d]pyrimidin-3-yl}-5-fluorophenol]: the IC50 on PI3Kβ, at PI3Kα, at PI3Kγ and at PI3Kδ was 10 to 1000 nM in each case.

For `N#Cc1c(N)ncnc1NCc1cn2ccccc2c1-c1ccccn1` [Example 30, 4-amino-6-({[1-(pyridin-2-yl)indolizin-2-yl]methyl}amino)pyrimidine-5-carbonitrile], the IC50 on PI3Kβ was over 1000 nM; on PI3Kα, over 1000 nM; at PI3Kγ, over 1000 nM; on PI3Kδ it was 10 to 1000 nM.

Take `Nc1ncn(Cc2cc3ccccn3c2-c2ccccc2)c2ncnc1-2` [Example 2, 3-[(3-phenylindolizin-2-yl)methyl]-3H-purin-6-amine]: the IC50 on PI3Kβ, on PI3Kα, at PI3Kγ and at PI3Kδ was over 1000 nM throughout.

With `C[C@H](c1c(C#N)c2ccccn2c1-c1cccc(CN(C)C)c1)n1nc(-c2cc(O)cc(F)c2)c2c(N)ncnc21` (single isomer, unassigned) [Example 127b, 2-{1-[4-amino-3-(3-fluoro-5-hydroxyphenyl)-1H-pyrazolo[3,4-d]pyrimidin-1-yl]ethyl}-3-{3-[(dimethylamino)methyl]phenyl}indolizine-1-carbonitrile], the IC50 at PI3Kβ was over 1000 nM; at PI3Kα, over 1000 nM; at PI3Kγ, over 1000 nM; at PI3Kδ it was under 10 nM.
